# Reference: US7141553B2, “A3AR agonists for the treatment of inflammatory arthritis” (Can-Fite Biopharma Ltd. Israel, priority 2002, dated 2006)
# Tests used:
# [1] = test system: patients with active rheumatoid arthritis; assay: Clinical trial in humans, effect on rheumatoid arthritis; assay type: in vivo, human; conditions: 0.1, 1 or 4 mg twice daily orally, up to 12 weeks; in at least half of 15 patients
# Excerpt: Patients with active rheumatoid arthritis were chosen for the study. All chosen patients met the following criteria:
# Rheumatoid arthritis patients that were included in the study, met the following inclusion criteria: • 1. Males and females 18 years of age or older • 2. Functional Class I, II, or III by the criteria of the American College of Rheumatology • 3. Active RA, as indicated by the presence of (a) ≧6 swollen joints; AND (b) ≧29 tender joints; AND at least one of he following: (c) Westergren ESR of ≧28 mm/hour; OR (d) CRP level of >2.0 mg/dL; OR (e) morning stiffness for >45 minutes • 4. History of unsuccessful treatment (documented intolerance or lack of efficacy as determined by the Investigator) with at least 1, but no more than 4, of the following disease modifying anti-rheumatic drugs (DMARDs): methotrexate, hydroxychloroquine, sulfasalazine, oral or injectable gold, azathioprine, leflunomide, minocycline, and penicillamine, alone or in combination Protocol
# Patients included in the study were subjected to a 1 month washout period in which they ceased to take any DMARD. Following this one months washout the patients were administered twice daily with either with 0.1 mg, 1 mg of 4 mg of IB-MECA in a double-blind fashion. […]
# Disease activity was assessed using standard criteria as laid down by the American College of Rheumatology (ACR).
# [2] = test system: healthy men; assay: Single dose study in healthy men, safety and tolerability; assay type: in vivo, human; conditions: for maximal tolerated dose: once daily administration
# Procedure: Two clinical studies were carried out: a single dose study and a repeat dose study. Both studies were parallel-group, double-blind, dose-rising, and placebo-controlled in design.
# In the single dose study, 15 healthy men (3 groups of 5) received a single oral dose of IB-MECA (1, 5 or 10 mg) or placebo. In each group, 1 subject received placebo. In the repeated dose study, 28 healthy men (4 groups of 7) received repeated oral doses of IB-MECA (2, 3, 4 or 5 mg) or placebo every 12 h for 7 days. In each group, 2 subjects received placebo.
# Healthy young men, aged 18–45 years.
# In the single dose study, a solution with IB-MECA powder in 30% Cremophor RH40 (BASF) was used. In the repeated dose study, an aqueous 0.5% methylcellulose suspension (Methocel A4M Premium, The Dow Chemical Company) was used. In both studies, the study medication was taken orally as a drink, followed by 50 ml of tap water.
# The following procedures were done: • Safety assesment: laboratory assessments (routine biochemistry and urinalysis), physical examination, 12-lead ECG, ambulatory ECG, pulmonary function testing (FEV1), vital signs (semi-recumbent in the single dose study; semi-recumbent and standing in the repeat dose study). Adverse events were recorded throughout both studies. • Determination of IB-MECA blood level: in the single dose study blood samples for assay of IB-MECA were taken immediately before and at 0.25, 0.5, 1, 2, 4, 8, 12, 24, and 48 h after dosing; in the repeat dose study—blood samples were taken immediately before and at 0.25, 0.5, 1, 2, 4, 8, and 12 h after dosing on Day 1, before dosing on Days 2–6, and before and at 0.25, 0.5, 1, 2, 4, 8, 12, and 24 h after dosing on Day 7.
# Data from all subjects who received IB-MECA were included in the analysis of safety and tolerability (adverse events and laboratory safety variables). Numerical data and parameters were summarised using means or medians, and other descriptive statistics, according to the type and distribution of the data.
# [3] = Plasma half life in mice; assay type: in vivo, mouse
# [4] = Human studies, plasma half life (data not shown); assay type: in vivo
# [5] = test system: collagen-induced arthritis; assay: Collagen-induced-arthritis (CIA) model in mice; assay type: in vivo, mouse
# Procedure: Male DBA mice, aged 10 weeks, were injected SC with 100 μl of Type II collagen 200 μg in complete Freund's adjuvant (CFA). On day 21 a booster injection of the same emulsion was administered. Mice were inspected daily for symptoms of clinical arthritis.
# The inflammatory intensity, presented as joint swelling, was measured by Caliper (Mitutoyo Co., Tokyo, Japan). Histopathological sections of these decalcified whole joints were stained with hematoxylin-eosin. Slides were screened for the following arthritic characteristics: inflammatory cell infiltration, synovial cell lining hyperplasia and pannus formation. The histological assessment of the knees inflammation intensity was divided to four parameters: • 1. Lymphatic follicle like formation—graded 0–4 • 2. Inflammatory cells infiltration—graded 0–4 • 3. Synovial cells hyperplasia—graded 0–4 • 4. Pannus formation—graded 0–4 The arithmetic sum of these four parameters above all together designated-“Total Arthritic Score” (Goldenberg et al, J. Rheumatol. 1: 5–11, 1983). The white blood cell (WBC) count and the serum levels of the pro-inflammatory cytokine TMF-α served as humoral markers of the immune system activation. Tumor necrosis factor-α sera level was determined, in accordance with the manufacturer's guidelines, by ELISA kit “Quantikine M” (R&D Systems, Minneapolis, Minn., USA). 4. Statistical Analysis
# Male DBA mice were treated to produce collagen-induced-arthritis as described above. Each group contained 10 animals and each experiment was conducted at least three times.
# IB-MECA (10 μg/kg) was orally administered by gavage, twice daily starting at onset of clinical arthritis. The […] control received vehicle only. The inflammatory intensity in the CIA model was determined in accordance with the increase in the mice hind paw's diameter, measured by caliper (Mitotoyo, Tokyo, Japan). The mean score in each experimental group was designated as the “Clinical Score”. […]
# The assessment of all pathologic findings were performed blind (by L. R-W and M. H) using semi-quantitative grading scales of 0 to 4 for the following parameters: […]
# [6] = test system: macrophages; conditions: dose dependent; cited from earlier work
smiles,measurement,setting,value
"CNC(=O)[C@H]1O[C@@H](n2cnc3c(NCc4cccc(I)c4)ncnc32)[C@H](O)[C@@H]1O [IB-MECA, N6-(3-iodobenzyl)-adenosine-5′-N-methyl-uronamide]",disease symptoms (ACR criteria),[1],significant improvement in disease symptoms
same,change in resting heart rate,"[2]; after single 5 mg dose, four subjects",small increase in resting heart rate
same,resting heart rate,"[2]; after single 10 mg dose, 2 subjects, considered drug-related",up to 115 beats/min
same,maximal tolerated dose,[2],about 5 mg
same,maximal tolerated dose,[2]; calculated on average human weight of 70 Kg,about 70 micro ram/Kg
same,adverse events within 12 h of dosing,[2]; single dose of 10 mg,8
same,adverse events within 12 h of dosing,[2]; single doses of up to 5 mg,no adverse events
same,tolerability,[2]; single oral doses of up to 5 mg,safe and well tolerated
same,half life,[3],1.5 h
same,half life in human plasma,[4],8 to 10 h
same,intensity of the arthritis,"[5]; 10 μg/kg orally, day 21 difference significant p<0.02",reduced throughout the experimental period
same,histology sections of joints,"[5]; 10 μg/kg, FIG. 7C",minimal inflammatory changes
same,histology score,"[5]; 10 μg/kg, p<0.01 vs control, FIG. 8",1.0±0.6
same,production of MIP-1α in macrophages,[6],suppresses the production of MIP-1α
same,"production of the cytokines IL-1, IL-2, IL-6 as well as NO",[6],"inhibit, also in a dose dependent manner"
